Experimental data taken from ChEMBL document CHEMBL1201862, “PubChem BioAssay data set” (2004).
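How tested: cells in 96-well plates exposed to compound for 48 hours at five concentrations. Here, GI50 denotes the concentration required for 50% inhibition of growth.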 Active and inactive are the calls of the source. No stated cut-off is given here; in the data, active = GI50 up to about 1.1 µM and inactive = higher.

Columns and labels:
Experiment in all cases: inhibition of tumour cell growth, NCI panel, 48 h
HT-29 = test system: HT-29
UACC-62 = test system: UACC-62
HOP-92 = test system: HOP-92
HCT-15 = test system: HCT-15
CAKI-1 = test system: CAKI-1
HL-60 = test system: HL-60
IGROV-1 = test system: IGROV-1
NCI-H460 = test system: NCI-H460
M14 = test system: M14
SF-268 = test system: SF-268
SK-MEL-5 = test system: SK-MEL-5
U-251 = test system: U-251
A549 = test system: A549
OVCAR-3 = test system: OVCAR-3
786-0 = test system: 786-0
MOLT-4 = test system: MOLT-4
HCT-116 = test system: HCT-116
SR = test system: SR

Compound	GI50 (HT-29)	GI50 (UACC-62)	GI50 (HOP-92)	GI50 (HCT-15)	GI50 (CAKI-1)	GI50 (HL-60)	GI50 (IGROV-1)	GI50 (NCI-H460)	GI50 (M14)	GI50 (SF-268)	GI50 (SK-MEL-5)	GI50 (U-251)	GI50 (A549)	GI50 (OVCAR-3)	GI50 (786-0)	GI50 (MOLT-4)	GI50 (HCT-116)	GI50 (SR)
COC(=O)C1CC(C(=O)OC)c2nc3cc(C)c(C)cc3nc21 (stereo not given)	> 100 µM (inactive)	> 100 µM (inactive)	> 100 µM (inactive)	> 100 µM	> 100 µM (inactive)	> 100 µM (inactive)	> 100 µM (inactive)	> 100 µM (inactive)	> 100 µM (inactive)	> 100 µM (inactive)	> 100 µM (inactive)	> 100 µM (inactive)	> 100 µM (inactive)	> 100 µM (inactive)	> 100 µM (inactive)	> 100 µM (inactive)	–	–
CCOc1ccccc1/N=N/c1ccc2oc(=O)c(C(C)=O)cc2c1	> 100 µM (inactive)	> 100 µM (inactive)	–	> 100 µM	> 100 µM (inactive)	> 100 µM (inactive)	> 100 µM (inactive)	> 10 µM (inactive)	> 100 µM (inactive)	> 100 µM (inactive)	> 100 µM (inactive)	43.7 µM (inactive)	> 100 µM (inactive)	> 100 µM (inactive)	54.6 µM (inactive)	> 100 µM (inactive)	> 100 µM (inactive)	–
O=C1CCC2(c3ccccc3)OCC([C@@H](O)c3ccccc3)N12 (stereo not given in full)	> 100 µM (inactive)	> 100 µM (inactive)	> 100 µM (inactive)	> 100 µM	> 100 µM (inactive)	–	> 100 µM (inactive)	> 100 µM (inactive)	–	> 100 µM (inactive)	> 100 µM (inactive)	> 100 µM (inactive)	> 100 µM (inactive)	> 100 µM (inactive)	> 100 µM (inactive)	–	> 100 µM (inactive)	> 100 µM (inactive)
C[N+](C)(C)CC1CCCC/C1=N\O (stereo not given)	> 100 µM (inactive)	> 100 µM (inactive)	> 100 µM (inactive)	> 100 µM	–	> 100 µM (inactive)	> 100 µM (inactive)	> 100 µM (inactive)	> 100 µM (inactive)	> 100 µM (inactive)	–	> 100 µM (inactive)	> 100 µM (inactive)	> 100 µM (inactive)	> 100 µM (inactive)	> 100 µM (inactive)	> 100 µM (inactive)	–
CC(C)C1CNC2N1C(=O)C2(C)OCc1ccccc1 (stereo not given)	> 100 µM (inactive)	> 100 µM (inactive)	–	> 100 µM	–	> 100 µM (inactive)	> 100 µM (inactive)	> 100 µM (inactive)	> 100 µM (inactive)	> 100 µM (inactive)	> 100 µM (inactive)	> 100 µM (inactive)	> 100 µM (inactive)	> 100 µM (inactive)	> 100 µM (inactive)	80.5 µM (inactive)	> 100 µM (inactive)	78.5 µM (inactive)
O=C(O)C1OC(Oc2cc(O)c3c(=O)cc(-c4ccc(O)cc4)oc3c2)C(O)C(O)C1O (stereo not given)	> 100 µM (inactive)	–	< 0.01 µM (active)	–	> 100 µM (inactive)	> 100 µM (inactive)	–	> 100 µM (inactive)	> 100 µM (inactive)	> 100 µM (inactive)	> 100 µM (inactive)	> 100 µM (inactive)	> 100 µM (inactive)	> 100 µM (inactive)	77.3 µM (inactive)	–	> 100 µM (inactive)	–
COc1cc(NCC(C#N)C#N)ccc1/N=N/c1ccc(Cl)cc1	16.4 µM (inactive)	10.6 µM (inactive)	–	20 µM	–	–	30.5 µM (inactive)	23.2 µM (inactive)	16.4 µM (inactive)	38.5 µM (inactive)	23 µM (inactive)	18.5 µM (inactive)	33.4 µM (inactive)	20.6 µM (inactive)	20 µM (inactive)	15.5 µM (inactive)	23.7 µM (inactive)	12.8 µM (inactive)
COC(=O)C1=CCON(c2ccccc2)C1c1ccccc1 (stereo not given)	40.4 µM (inactive)	49.8 µM (inactive)	–	38 µM	42.9 µM (inactive)	24.9 µM (inactive)	97.3 µM (inactive)	48.2 µM (inactive)	32.2 µM (inactive)	75.3 µM (inactive)	–	40.3 µM (inactive)	40.2 µM (inactive)	> 100 µM (inactive)	> 100 µM (inactive)	27 µM (inactive)	–	31.3 µM (inactive)
O=c1cc(-c2ccccc2)[nH]c2cc(Cl)cc(Cl)c12	> 100 µM (inactive)	23.2 µM (inactive)	25.5 µM (inactive)	6.79 µM	49 µM (inactive)	> 100 µM (inactive)	52.7 µM (inactive)	59 µM (inactive)	> 100 µM (inactive)	28.4 µM (inactive)	37.8 µM (inactive)	31.1 µM (inactive)	53.3 µM (inactive)	–	22 µM (inactive)	> 100 µM (inactive)	31.6 µM (inactive)	3.16 µM (inactive)
O=C1C2=C(c3ccccc31)C(c1ccccc1)NC(S)=N2 (stereo not given)	57.5 µM (inactive)	29 µM (inactive)	14.8 µM (inactive)	37.1 µM	48.8 µM (inactive)	17.9 µM (inactive)	75.3 µM (inactive)	91.6 µM (inactive)	55.1 µM (inactive)	30.8 µM (inactive)	54.8 µM (inactive)	50.1 µM (inactive)	45.9 µM (inactive)	31.6 µM (inactive)	27.4 µM (inactive)	31.4 µM (inactive)	29 µM (inactive)	–
COc1cc(O)c2c(c1O)C(=O)c1cc(C)ncc1C2=O	15.3 µM (inactive)	17.3 µM (inactive)	–	16.6 µM	–	17.7 µM (inactive)	23.1 µM (inactive)	13.8 µM (inactive)	24.8 µM (inactive)	19.8 µM (inactive)	11.6 µM (inactive)	12.9 µM (inactive)	17 µM (inactive)	16.7 µM (inactive)	23 µM (inactive)	30.8 µM (inactive)	16.5 µM (inactive)	–
N#CNc1nc(C(=O)Nc2ccc(Cl)cc2)cc(-c2ccccc2)n1	> 100 µM (inactive)	> 100 µM (inactive)	> 100 µM (inactive)	> 100 µM	> 100 µM (inactive)	> 100 µM (inactive)	> 100 µM (inactive)	–	> 100 µM (inactive)	> 100 µM (inactive)	> 100 µM (inactive)	> 100 µM (inactive)	> 100 µM (inactive)	> 100 µM (inactive)	> 100 µM (inactive)	> 100 µM (inactive)	> 100 µM (inactive)	–
Cc1cc(Cl)ccc1NC1=NC(=O)C(CC(=O)Nc2ccc(Cl)cc2Cl)S1 (stereo not given)	> 100 µM (inactive)	> 100 µM (inactive)	–	> 100 µM	> 100 µM (inactive)	–	> 100 µM (inactive)	> 100 µM (inactive)	> 100 µM (inactive)	> 100 µM (inactive)	> 100 µM (inactive)	> 100 µM (inactive)	> 100 µM (inactive)	> 100 µM (inactive)	> 100 µM (inactive)	> 100 µM (inactive)	–	–
C/C=C/C=C/C=C/C=C/C(=O)O	> 100 µM (inactive)	> 100 µM (inactive)	–	> 100 µM	> 100 µM (inactive)	> 100 µM (inactive)	> 100 µM (inactive)	> 100 µM (inactive)	> 100 µM (inactive)	> 100 µM (inactive)	> 100 µM (inactive)	> 100 µM (inactive)	> 100 µM (inactive)	> 100 µM (inactive)	> 100 µM (inactive)	> 100 µM (inactive)	> 100 µM (inactive)	> 100 µM (inactive)
CC1CC(=O)C(CC(=O)O)[C@H]1C(C(=O)C(=O)Nc1cc(Cl)ccc1Cl)[N+](=O)[O-] (stereo not given in full)	> 100 µM (inactive)	> 100 µM (inactive)	> 100 µM (inactive)	> 100 µM	> 100 µM (inactive)	> 100 µM (inactive)	> 100 µM (inactive)	> 100 µM (inactive)	–	> 100 µM (inactive)	> 100 µM (inactive)	> 100 µM (inactive)	> 100 µM (inactive)	> 100 µM (inactive)	> 100 µM (inactive)	–	–	> 100 µM (inactive)
COc1cc2nc(-c3cccc(N(C)C)c3)cc(O)c2cc1OC	3.2 µM (inactive)	3.44 µM (inactive)	> 100 µM (inactive)	2.99 µM	–	2.7 µM (inactive)	7.11 µM (inactive)	3.94 µM (inactive)	2.07 µM (inactive)	16.6 µM (inactive)	4.36 µM (inactive)	–	4.06 µM (inactive)	1.52 µM (inactive)	3.57 µM (inactive)	5.19 µM (inactive)	4.8 µM (inactive)	5.14 µM (inactive)
Nc1ccc2c(c1)C(=O)N(OS(=O)(=O)c1ccccc1)C2=O	> 100 µM (inactive)	> 100 µM (inactive)	> 100 µM (inactive)	> 100 µM	> 100 µM (inactive)	46.5 µM (inactive)	> 100 µM (inactive)	> 100 µM (inactive)	> 100 µM (inactive)	> 100 µM (inactive)	> 100 µM (inactive)	> 100 µM (inactive)	> 100 µM (inactive)	> 100 µM (inactive)	> 100 µM (inactive)	–	> 100 µM (inactive)	–
Nc1ccc(O)c2c1C(=O)c1c(N)ccc(O)c1C2=O	–	> 100 µM (inactive)	> 100 µM (inactive)	> 100 µM	> 100 µM (inactive)	> 100 µM (inactive)	> 100 µM (inactive)	> 100 µM (inactive)	> 100 µM (inactive)	> 100 µM (inactive)	> 100 µM (inactive)	> 100 µM (inactive)	> 100 µM (inactive)	> 100 µM (inactive)	> 100 µM (inactive)	> 100 µM (inactive)	> 100 µM (inactive)	–
